Earlier results as cited in patent US20220401579A1, “INCLUSION COMPLEXES OF PHARMACEUTICALS AND CYCLIC OLIGOMERS” (DISPERSOL TECHNOLOGIES, LLC, priority 2019, published 2022).
Read-outs that look alike come from different tables or passages of the source.

Columns and labels:
[1] = for solubility in water / aqueous media (descriptive): water or aqueous media
[2] = granulate released in the proximal small intestine

CCC(C)n1ncn(-c2ccc(N3CCN(c4ccc(OCC5COC(Cn6cncn6)(c6ccc(Cl)cc6Cl)O5)cc4)CC3)cc2)c1=O (stereo not shown) [Itraconazole, 2-butan-2-yl-4-[4-[4-[4-[[2-(2,4-dichlorophenyl)-2-(1,2,4-triazol-1-ylmethyl)-1,3-dioxolan-4-yl]methoxy]phenyl]-1-piperazinyl]phenyl]-1,2,4-triazol-3-one]
solubility in alcohols (descriptive) ([1]; alcohols): very slightly soluble | solubility in dichloromethane (descriptive) ([1]; dichloromethane): freely soluble | log (n-octanol/water) partition coefficient ([1]; pH 8.1): 5.66 | solubility in water / aqueous media (descriptive) [1]: insoluble

O=C(NC[C@H]1CN(c2ccc(N3CCOCC3=O)cc2)C(=O)O1)c1ccc(Cl)s1 [Rivaroxaban, 5-Chloro-N-({(5S)-2-oxo-3-[4-(3-oxo-4-morpholinyl)phenyl]-1,3-oxazolidin-5-yl}methyl)-2-thiophenecarboxamide]
solubility in organic solvents (descriptive) ([1]; organic solvents (e.g., acetone, polyethylene glycol 400)): only slightly soluble | solubility in water / aqueous media (descriptive) [1]: practically insoluble | absolute bioavailability (20 mg dose, fasted state): approximately 66% | decrease in AUC compared to tablet [2]: 29% | decrease in Cmax compared to tablet [2]: 56%

COC(=O)c1ccc2c(c1)NC(=O)/C2=C(\Nc1ccc(N(C)C(=O)CN2CCN(C)CC2)cc1)c1ccccc1 [Nintedanib, 1H-Indole-6-carboxylic acid, 2,3 dihydro-3-[[[4-[methyl[(4-methyl-1-piperazinyl)acetyl]amino]phenyl]amino]phenylmethylene]-2-oxo-,methyl ester]
median Tmax (fasted): 2.00 h | median Tmax (fed): 3.98 h | increase in exposure after food intake compared to fasted conditions (fed versus fasted): approximately 20%

CC(O)COC[C@H]1O[C@@H]2O[C@H]3[C@H](O)[C@@H](O)[C@@H](O[C@H]4[C@H](O)[C@@H](O)[C@@H](O[C@H]5[C@H](O)[C@@H](O)[C@@H](O[C@H]6[C@H](O)[C@@H](O)[C@@H](O[C@H]7[C@H](O)[C@@H](O)[C@@H](O[C@H]8[C@H](O)[C@@H](O)[C@@H](O[C@H]1[C@H](O)[C@H]2O)O[C@@H]8COCC(C)O)O[C@@H]7COCC(C)O)O[C@@H]6COCC(C)O)O[C@@H]5COCC(C)O)O[C@@H]4COCC(C)O)O[C@@H]3COCC(C)O (stereo partly drawn) [HPBCD, hydroxy propyl β cyclodextrin]
water solubility ([1]; water): > 600 mg/mL

CNC(=O)c1cc(Oc2ccc(NC(=O)Nc3ccc(Cl)c(C(F)(F)F)c3)cc2)ccn1 [Sorafenib, 4-[4-({[4-chloro-3-(trifluoromethyl)phenyl]carbamoyl}amino)phenoxy]-N-methylpyridine-2-carboxamide]
solubility in PEG 400 (descriptive) ([1]; PEG 400): soluble | solubility in ethanol (descriptive) ([1]; ethanol): slightly soluble | solubility in water / aqueous media (descriptive) [1]: practically insoluble

COC(=O)c1ccc2c(c1)NC(=O)/C2=C(\Nc1ccc(N(C)C(=O)CN2CCN(C)CC2)cc1)c1ccccc1 [Nintedanib esylate, 1H-Indole-6-carboxylic acid, 2,3 dihydro-3-[[[4-[methyl[(4-methyl-1-piperazinyl)acetyl]amino]phenyl]amino]phenylmethylene]-2-oxo-,methyl ester, (3Z)-, ethanesulfonate (1:1)]
intrinsic pH of saturated solution in water ([1]; saturated solution in water): 5.7 | concentration of a saturated solution in water ([1]; water): 2800 µg/mL | solubility in water / aqueous media (descriptive) [1]: soluble
